Data as given in patent publication US20020019991A1, “COMPOSITIONS CONTAINING AN ALPHA 1,2-FUCOSE LINKAGE AND USES THEREOF” (ABBOTT LABORATORIES, priority 1998, published 2002).

Tests used:
[1] = test system: enterohemorrhagic E. coli (EHEC); experiment: Competitive assay: inhibition of EHEC attachment to transfected CHO (α1-2 FT) cells, colony counting; format: cell-based, Escherichia coli
Procedure: (§1) To determine whether 2′Fucosyllactose is an important chemical structure of the cell receptor for V. cholerae and enterohemorrhagic E. coli (EHEC), a competitive assay was set up. A volume of 400 ul of a suspension of transfected CHO (α1-2 FT) cells at a concentration of 4×10^5 cells/mL was placed in each well of an 8-well microchamber slide (Lab-Tek, Nunc, Inc. Naperville, Ill.). Cells were incubated overnight at 37° C. in a 5% CO2 atmosphere. A bacterial suspension of 1.5×10^8 of V. cholerae was added with either 0.5, 1, or 2 mg/mL of 2′fucosyllactose and incubated at 37° C. Wells were washed 6 times with PBS. Cells were detached with […] of triton x 100 and serial dilutions in TBS or McConkey agar plates were done for colony counting.

V. cholerae = experiment: Competitive assay: inhibition of V. cholerae attachment to transfected CHO (α1-2 FT) cells, colony counting; format: cell-based, Vibrio cholerae
Procedure: as §1

[2] = test system: Enteropathogenic E. coli (EPEC); format: binding, Escherichia coli
[3] = test system: Vibrio cholerae 01 Ogawa strain 2995; format: binding
[4] = test system: Enterohemorrhagic Escherichia coli (EHEC) 0157:H7 strain 933; format: binding

Row | Compound | inhibition of binding, EHEC compared with V. cholerae ([1]; EHEC versus V. cholerae, transfected CHO cells) | dose dependence of inhibition of bacterial cell attachment ([1]; EHEC, 0.5, 1, or 2 mg/mL) | inhibition of bacterial cell attachment ([1]; EHEC, transfected CHO (α1-2 FT) cells, concentration as low as 0.5 mg/ml) | dose dependence of inhibition of bacterial cell attachment (V. cholerae; 0.5, 1, or 2 mg/mL) | inhibition of bacterial cell attachment (V. cholerae; transfected CHO (α1-2 FT) cells, concentration as low as 0.5 mg/ml) | binding of EPEC to immobilized blood group antigen neoglycoprotein [2] | binding of V. cholerae to immobilized blood group antigen neoglycoprotein [3] | binding of EHEC to immobilized blood group antigen neoglycoprotein [4]
1 | C[C@@H]1O[C@@H](O[C@H]2[C@H](O[C@H]3[C@H](O)[C@@H](O)C(O)O[C@@H]3CO)O[C@H](CO)[C@H](O)[C@@H]2O)[C@@H](O)[C@H](O)[C@@H]1O (some centres unmarked) [2′fucosyllactose, 2′-fucosyllactose (Fucα1-2Galβ1-4Glc)] | greater inhibition | dose-dependent inhibition | significant inhibition | dose-dependent inhibition | significant inhibition |  |  | 
2 | Lewis^x |  |  |  |  |  | stronger binding | stronger binding | stronger binding
